Patent US12129237B2, “Substituted diaminocarboxamide and diaminocarbonitrile pyrimidines, compositions thereof, and methods of treatment therewith” (SIGNAL PHARMACEUTICALS, LLC, priority 2011, dated 2024)

Molecular target: T1, JNK1 (Homo sapiens, UniProt P45983)
T1 construct: purchased Carna Biosciences
Experiment: JNK1 biochemical assays (one or more of: time resolved fluorescence, Z'-LYTE Cascade, radioactive)
Settings: one or more of the JNK1 biochemical assays; read-out: Act. Level (JNK1 IC50 activity level)

T1 sequence (P45983 whole entry): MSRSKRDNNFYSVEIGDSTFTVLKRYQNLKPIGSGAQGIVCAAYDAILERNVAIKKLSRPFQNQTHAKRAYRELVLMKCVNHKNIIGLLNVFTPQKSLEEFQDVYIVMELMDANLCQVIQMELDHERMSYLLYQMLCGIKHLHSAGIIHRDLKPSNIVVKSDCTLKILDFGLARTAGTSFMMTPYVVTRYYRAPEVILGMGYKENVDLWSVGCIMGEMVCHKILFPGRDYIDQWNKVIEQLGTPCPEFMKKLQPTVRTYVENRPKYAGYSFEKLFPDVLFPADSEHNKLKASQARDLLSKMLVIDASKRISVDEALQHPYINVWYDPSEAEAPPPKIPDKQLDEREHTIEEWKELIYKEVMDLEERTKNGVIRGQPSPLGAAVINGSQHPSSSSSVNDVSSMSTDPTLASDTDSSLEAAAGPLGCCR

Row | Structure (SMILES) | IC50 [nM]
1 | NC(=O)c1cnc(N[C@H]2CC[C@H](O)CC2)nc1NC1(C2CC2)CC1 [Example 355, 4-(bi(cycloprop)ylamino)-2-((1r,4r)-4-hydroxycyclohexylamino)pyrimidine-5-carboxamide] | < 200
2 | CCC1(Nc2nc(N[C@H]3CC[C@H](O)CC3)ncc2C(N)=O)CC1 [Example 356, 4-(1-ethylcyclopropylamino)-2-((1r,4r)-4-hydroxycyclohexylamino)pyrimidine-5-carboxamide] | < 200
3 | CC1(Nc2nc(N[C@H]3CC[C@H](O)CC3)ncc2C(N)=O)CCCCC1 [Example 357, 2-((1r,4r)-4-hydroxycyclohexylamino)-4-(1-methylcyclohexylamino)pyrimidine-5-carboxamide] | < 200
4 | CO[C@H]1CC[C@H](Nc2ncc(C(N)=O)c(NC3(C)CCCCC3)n2)CC1 [Example 358, 2-((1r,4r)-4-methoxycyclohexylamino)-4-(1-methylcyclohexylamino)pyrimidine-5-carboxamide] | < 200
5 | CCO[C@H]1CC[C@H](Nc2ncc(C(N)=O)c(NC3(C)CCCCC3)n2)CC1 [Example 359, 2-((1r,4r)-4-ethoxycyclohexylamino)-4-(1-methylcyclohexylamino)pyrimidine-5-carboxamide] | < 200
6 | CCO[C@H]1CC[C@H](Nc2ncc(C(N)=O)c(NC3(CC)CCC3)n2)CC1 [Example 360, 2-((1r,4r)-4-ethoxycyclohexylamino)-4-(1-ethylcyclobutylamino)pyrimidine-5-carboxamide] | < 200
7 | CCC1(Nc2nc(N[C@H]3CC[C@H](OC)CC3)ncc2C(N)=O)CCC1 [Example 361, 4-(1-ethylcyclobutylamino)-2-((1r,4r)-4-methoxycyclohexylamino)pyrimidine-5-carboxamide] | < 200
8 | CCC1(Nc2nc(N[C@H]3CC[C@H](O)CC3)ncc2C(N)=O)CCC1 [Example 362, 4-(1-ethylcyclobutylamino)-2-((1r,4r)-4-hydroxycyclohexylamino)pyrimidine-5-carboxamide] | < 200
9 | CCC(CC)Nc1nc(N[C@H]2CC[C@H](O)CC2)ncc1C(N)=O [Example 363, 2-((1r,4r)-4-hydroxycyclohexylamino)-4-(pentan-3-ylamino)pyrimidine-5-carboxamide] | < 200
10 | C[C@@H]1CC[C@@H](Nc2nc(NC3CCCC3)ncc2C(N)=O)C[C@H]1O [Example 364, 2-(cyclopentylamino)-4-((1R,3R,4R)-3-hydroxy-4-methylcyclohexylamino)pyrimidine-5-carboxamide] | < 200
11 | CC(C)(C)Nc1ncc(C(N)=O)c(N[C@@H]2CCC[C@@H]2CO)n1 [Example 365, 2-(tert-butylamino)-4-((1R,2S)-2-(hydroxymethyl)cyclopentylamino)pyrimidine-5-carboxamide] | < 200
12 | CC(C)C(C)(C)Nc1ncc(C(N)=O)c(N[C@@H]2CC[C@@H](C)[C@H](O)C2)n1 [Example 366, 2-(2,3-dimethylbutan-2-ylamino)-4-((1R,3R,4R)-3-hydroxy-4-methylcyclohexylamino)pyrimidine-5-carboxamide] | < 200
13 | C[C@@H]1CC[C@@H](Nc2nc(NCC(C)(C)C)ncc2C(N)=O)C[C@H]1O [Example 367, 4-((1R,3R,4R)-3-hydroxy-4-methylcyclohexylamino)-2-(neopentylamino)pyrimidine-5-carboxamide] | < 200
14 | NC(=O)c1cnc(N[C@H]2CC[C@H](OC3CC3)CC2)nc1NC12CC(C1)C2 [Example 368, 4-(bicyclo[1.1.1]pentan-1-ylamino)-2-((1r,4r)-4-cyclopropoxycyclohexylamino)pyrimidine-5-carboxamide] | < 200
15 | CC(C)CC(C)(C)Nc1nc(N[C@H]2CC[C@H](O)CC2)ncc1C(N)=O [Example 369, 4-(2,4-dimethylpentan-2-ylamino)-2-((1r,4r)-4-hydroxycyclohexylamino)pyrimidine-5-carboxamide] | < 200
16 | COC12CCC(Nc3ncc(C(N)=O)c(NC4CCC[C@](C)(O)C4)n3)(CC1)CC2 (stereo partly drawn) [Example 370, 4-((3S)-3-hydroxy-3-methylcyclohexylamino)-2-(4-methoxybicyclo[2.2.2]octan-1-ylamino)pyrimidine-5-carboxamide] | < 200
17 | CC(C)(C)Nc1nc(N[C@H]2CC[C@@](C)(O)CC2)ncc1C(N)=O [Example 371, 4-(tert-butylamino)-2-((1s,4s)-4-hydroxy-4-methylcyclohexylamino)pyrimidine-5-carboxamide] | < 200
18 | CC[C@H](Nc1nc(N[C@H]2CC[C@H](OC)CC2)ncc1C(N)=O)C1CC1 [Example 372, 4-((S)-1-cyclopropylpropylamino)-2-((1r,4S)-4-methoxycyclohexylamino)pyrimidine-5-carboxamide] | < 200
19 | CCO[C@H]1CC[C@H](Nc2ncc(C(N)=O)c(N[C@@H](CC)C3CC3)n2)CC1 [Example 373, 4-((S)-1-cyclopropylpropylamino)-2-((1r,4S)-4-ethoxycyclohexylamino)pyrimidine-5-carboxamide] | < 200
20 | CC[C@@H](Nc1nc(N[C@H]2CC[C@H](OC)CC2)ncc1C(N)=O)C1CC1 [Example 374, 4-((R)-1-cyclopropylpropylamino)-2-((1r,4R)-4-methoxycyclohexylamino)pyrimidine-5-carboxamide] | < 200

Row | Structure (SMILES) | IC50 [nM]
21 | CCO[C@H]1CC[C@H](Nc2ncc(C(N)=O)c(N[C@H](CC)C3CC3)n2)CC1 [Example 375, 4-((R)-1-cyclopropylpropylamino)-2-((1r,4R)-4-ethoxycyclohexylamino)pyrimidine-5-carboxamide] | < 200
22 | CC(C)(C)Nc1nc(N[C@@H]2CCCC[C@H](O)C2)ncc1C(N)=O [Example 376, 4-(tert-butylamino)-2-((1R,3S)-3-hydroxycycloheptylamino)pyrimidine-5-carboxamide] | < 200
23 | NC(=O)c1cnc(NC2CC2)nc1N[C@@H]1CCCC[C@H](O)C1 [Example 377, 2-(cyclopropylamino)-4-((1R,3S)-3-hydroxycycloheptylamino)pyrimidine-5-carboxamide] | < 200
24 | C[C@]1(O)CCC[C@@H](Nc2nc(NC3CC3)ncc2C(N)=O)C1 [Example 378, 2-(cyclopropylamino)-4-((1R,3S)-3-hydroxy-3-methylcyclohexylamino)pyrimidine-5-carboxamide] | < 200
25 | NC(=O)c1cnc(NC2CC2)nc1N[C@@H]1CCC[C@H](O)C1 [Example 379, 2-(cyclopropylamino)-4-((1R,3S)-3-hydroxycyclohexylamino)pyrimidine-5-carboxamide] | < 200
26 | CC(C)(C)Nc1nc(N[C@@H]2CCC[C@](C)(O)C2)ncc1C(N)=O [Example 380, 4-(tert-butylamino)-2-((1R,3S)-3-hydroxy-3-methylcyclohexylamino)pyrimidine-5-carboxamide] | < 200
27 | CCC(C)(C)Nc1nc(N[C@H]2CC[C@H](OC)CC2)ncc1C(N)=O [Example 381, 2-((1r,4r)-4-methoxycyclohexylamino)-4-(tert-pentylamino)pyrimidine-5-carboxamide] | < 200
28 | CCC(C)(C)Nc1nc(N[C@H]2CC[C@H](OC3CC3)CC2)ncc1C(N)=O [Example 382, 2-((1r,4r)-4-cyclopropoxycyclohexylamino)-4-(tert-pentylamino)pyrimidine-5-carboxamide] | < 200
29 | CC[C@@H](C)Nc1ncc(C(N)=O)c(N[C@@H]2CC[C@@H](C)[C@H](O)C2)n1 [Example 383, 2-(sec-butylamino)-4-((1R,3R,4R)-3-hydroxy-4-methylcyclohexylamino)pyrimidine-5-carboxamide] | < 200
30 | CC[C@H](Nc1nc(N[C@H]2CC[C@H](O)CC2)ncc1C(N)=O)C1CC1 [Example 384, 4-((S)-1-cyclopropylpropylamino)-2-((1r,4S)-4-hydroxycyclohexylamino)pyrimidine-5-carboxamide] | < 200
31 | CC[C@@H](Nc1nc(N[C@H]2CC[C@H](O)CC2)ncc1C(N)=O)C1CC1 [Example 385, 4-((R)-1-cyclopropylpropylamino)-2-((1r,4R)-4-hydroxycyclohexylamino)pyrimidine-5-carboxamide] | < 200
32 | CC(C)(C)Nc1nc(N[C@@H]2CCCC[C@@H](O)C2)ncc1C(N)=O [Example 386, 4-(tert-butylamino)-2-((1R,3R)-3-hydroxycycloheptylamino)pyrimidine-5-carboxamide] | < 200
33 | CC(C)(C)Nc1nc(N[C@H]2CCCC[C@H](O)C2)ncc1C(N)=O [Example 387, 4-(tert-butylamino)-2-((1S,3S)-3-hydroxycycloheptylamino)pyrimidine-5-carboxamide] | < 200
34 | CC(C)(C)Nc1nc(N[C@H]2CCCC[C@@H](O)C2)ncc1C(N)=O [Example 388, 4-(tert-butylamino)-2-((1S,3R)-3-hydroxycycloheptylamino)pyrimidine-5-carboxamide] | < 200
35 | CC(C)(C)Nc1nc(NC2(C)CCOCC2)ncc1C(N)=O [Example 389, 4-(tert-butylamino)-2-(4-methyltetrahydro-2H-pyran-4-ylamino)pyrimidine-5-carboxamide] | < 200
36 | CCCC(C)(C)Nc1nc(N[C@H]2CC[C@H](O)CC2)ncc1C(N)=O [Example 390, 2-((1r,4r)-4-hydroxycyclohexylamino)-4-(2-methylpentan-2-ylamino)pyrimidine-5-carboxamide] | < 200
37 | CCCC(C)(C)Nc1nc(N[C@H]2CC[C@H](OCC)CC2)ncc1C(N)=O [Example 391, 2-((1r,4r)-4-ethoxycyclohexylamino)-4-(2-methylpentan-2-ylamino)pyrimidine-5-carboxamide] | < 200
38 | CCCC(C)(C)Nc1nc(N[C@H]2CC[C@H](OC)CC2)ncc1C(N)=O [Example 392, 2-((1r,4r)-4-methoxycyclohexylamino)-4-(2-methylpentan-2-ylamino)pyrimidine-5-carboxamide] | < 200
39 | CC12CC(Nc3nc(N[C@H]4CC[C@H](O)CC4)ncc3C(N)=O)(C1)C2 [Example 393, 2-((1r,4r)-4-hydroxycyclohexylamino)-4-(3-methylbicyclo[1.1.1]pentan-1-ylamino)pyrimidine-5-carboxamide] | < 200
